Measured values taken from patent US7098204B2 (C.N.R.S., priority 1999, dated 2006).
Converted amounts (≈) assume the structure as drawn.

What was measured:
[1] = system: GSK-3β like activity in Sf9 cells; assay: Tau (htau23) phosphorylation in Sf9 cells, Western blotting; assay type: cell-based; settings: 50 μM, 5 hrs, Sf9 cells expressing htau23
Experimental: Cells and viruses. Sf9 cells (InVitrogen, San Diego, Calif.) were grown at 27° C. in monolayer culture Grace's medium (Gibco BRL, Gaithersburg, Md.) supplemented with 10% fetal bovine serum and 50 μg gentamycin/ml and 2.5 μg amphotericin/ml. BaculoGold was obtained from PharMingen (San Diego, Calif.), pVL1392 from In Vitrogen.
Tau transfection. The gene for htau23, the shortest human tau isoform [27] was excised from the bacterial expression vector pNG2 [28] with XbaI and BamHI, and inserted into the baculovirus transfer vector pVL1392 cut with the same restriction endonucleases. The BaculoGold system was used to construct the tau baculovirus containing vector. The BaculoGold DNA is a modified type of baculovirus containing a lethal deletion. Cotransfection of the BaculoGold DNA with a complementing baculovirus transfer vector rescued the lethal deletion of this virus DNA and reconstituted viable virus particles carrying the htau23 coding sequence. Plasmid DNA used for transfections was purified using QIAGEN cartridges (Hilden, Germany). Sf9 cells grown in monolayers (2×10^6 cells in a 60 mm cell culture dish) were cotransfected with baculovirus DNA (0.5 μg BaculoGold DNA) and with vector derivatives of pVL1392 (2 μg) using a calcium phosphate coprecipitation method. […]

protein kinase C β2 = protein kinase C β2 (Homo sapiens, UniProt P05771); assay: protein kinase C β2 assay; assay type: biochemical; settings: 15 μM ATP
Experimental: (§1) Kinases activities were assayed in Buffer A or C (unless otherwise stated), at 30° C., at a final ATP concentration of 15 μM. Blank values were subtracted and activities calculated as pmoles of phosphate incorporated for a 10 min. incubation (usually expressed in % of the maximal activity, i.e. without inhibitors). Controls were performed with appropriate dilutions of Me2SO. In some cases phosphorylation of the substrate was assessed by autoradiography after SDS-PAGE. IC50 values were estimated from the dose-response curves. • CDK1/cyclin B was extracted in homogenisation buffer from M phase starfish (Marthasterias glacialis) oocytes and purified by affinity chromatography on p9^CKShs1-Sepharose beads, from which it was eluted by free p9^CKShs1 as described. The kinase activity was assayed in buffer C, with 1 mg histone H1/ml, in the presence of 15 μM [γ-^32P] ATP (3,000 Ci/mmol; 1 mCi/ml) in a final volume of 30 μl. After 10 min. incubation at 30° C., 25 μl aliquots of supernatant were spotted onto 2.5×3 cm pieces of Whatman P81 phosphocellulose paper, and, 20 sec. later, the filters were washed five times (for at least 5 min. each time) in a solution of 10 ml phosphoric acid/liter of water. The wet filters were counted in the presence of 1 ml ACS (Amersham) scintillation fluid. • GSK-3β was either purified from rabbit muscle or expressed in and purified from insect Sf9 cells. […]

c-Jun N-terminal kinase = c-Jun N-terminal kinase assay; assay type: biochemical; settings: 15 μM ATP
Experimental: as §1

cdk2/cyclin E = cdk2/cyclin E (Homo sapiens, UniProt P24941); assay: cdk2/cyclin E kinase assay; assay type: biochemical; settings: 15 μM ATP
Experimental: as §1

ovary, OVCAR-3 = assay: Human cancer cell line OVCAR-3 proliferation; assay type: cell-based
protein kinase C ε = protein kinase C ε (Homo sapiens, UniProt Q02156); assay: protein kinase C ε assay; assay type: biochemical; settings: 15 μM ATP
Experimental: as §1

kidney, A498 = assay: Human cancer cell line A498 proliferation; assay type: cell-based
topoisomerase I = topoisomerase I (Homo sapiens, UniProt P11387); assay: topoisomerase I assay; assay type: biochemical; settings: −(x) = no effect at the highest dose tested (in parentheses)
Experimental: Enzyme activities were assayed as described in the Experimental Procedures section, in the presence of increasing HD concentrations. IC50's were calculated from the dose-response curves.−, no effect at the highest dose tested (in parentheses).

protein kinase C β1 = protein kinase C β1 (Homo sapiens, UniProt P05771); assay: protein kinase C β1 assay; assay type: biochemical; settings: 15 μM ATP
Experimental: as §1

CDK1/cyclin B = assay: Cyclin B release from immobilised CDK1/cyclin B, Western blot; assay type: binding, starfish; settings: high HD concentrations, 30 min., beads washed
Experimental: Proteins bound to p9^CKShs1-Sepharose beads (starfish CDK1/cyclin B) were denatured with 2× Laemmli sample buffer. Samples were run on 10% SDS-polyacrylamide gels. Proteins were transferred from the gel to a 0.1 μm nitrocellulose sheet in a milliblot-SDE system (Millipore) for 30 min. at 2.5 mA/cm^2 in transfer buffer. Subsequently, the filter was blocked with 5% low fat milk in TBST for 1 hour. The filter was then washed with TBST and incubated for 1 hour with the first antibodies (anti-PSTAIRE, 1:2000; anti-cyclin B, 1:1000). After 4 washes (1×20 min., 3×5 min.) with TBST, the nitrocellulose sheet was treated for 1 hour with horseradish peroxidase-coupled secondary antibodies diluted in TBST (1:1000). The filter was then washed 5 times (1×20 min., 4×5 min.) with TBST and analysed by enhanced chemioluminescence with ECL detection reagents and hyperfilm MP.
To investigate the mechanism of HD action, kinetic experiments were performed by varying both ATP levels and HD concentrations (FIG. 6A). […] Enzyme activities were assayed as described under the Experimental Procedures section. Results illustrated by FIG. 6A: 1/v vs 1/ATP primary plot. ATP concentrations in the reaction mixture varied from 0.05 to 0.25 mM, concentration of histone H1 was kept constant at 0.7 mg/ml. […] Apparent inhibition constant (Ki) is indicated by an arrow.

ASK-γ (plant GSK-3) = ASK-γ (plant GSK-3) (Arabidopsis thaliana, UniProt P43289); assay: ASK-γ kinase assay; assay type: biochemical
Experimental: as §1

protein kinase C ε, sequence (Q02156 whole entry): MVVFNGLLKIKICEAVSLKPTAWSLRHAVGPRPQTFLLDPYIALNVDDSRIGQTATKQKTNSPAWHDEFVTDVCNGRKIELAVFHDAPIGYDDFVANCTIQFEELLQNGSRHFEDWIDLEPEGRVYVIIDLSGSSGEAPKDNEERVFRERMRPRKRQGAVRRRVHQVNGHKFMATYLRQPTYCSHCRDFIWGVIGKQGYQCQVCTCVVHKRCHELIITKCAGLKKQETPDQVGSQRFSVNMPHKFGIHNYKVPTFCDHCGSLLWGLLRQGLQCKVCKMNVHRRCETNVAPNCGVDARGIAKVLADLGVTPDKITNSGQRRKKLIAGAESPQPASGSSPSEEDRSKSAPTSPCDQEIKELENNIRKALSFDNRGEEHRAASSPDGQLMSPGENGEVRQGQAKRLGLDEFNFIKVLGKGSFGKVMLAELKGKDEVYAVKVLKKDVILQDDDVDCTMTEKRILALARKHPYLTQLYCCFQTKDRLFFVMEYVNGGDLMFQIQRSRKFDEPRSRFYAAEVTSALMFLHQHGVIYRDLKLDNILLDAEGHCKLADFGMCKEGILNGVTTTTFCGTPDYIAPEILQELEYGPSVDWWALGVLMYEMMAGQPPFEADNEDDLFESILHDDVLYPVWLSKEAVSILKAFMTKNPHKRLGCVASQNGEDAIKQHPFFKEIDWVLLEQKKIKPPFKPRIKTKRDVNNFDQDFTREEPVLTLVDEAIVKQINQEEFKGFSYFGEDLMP
topoisomerase I, sequence (P11387 whole entry): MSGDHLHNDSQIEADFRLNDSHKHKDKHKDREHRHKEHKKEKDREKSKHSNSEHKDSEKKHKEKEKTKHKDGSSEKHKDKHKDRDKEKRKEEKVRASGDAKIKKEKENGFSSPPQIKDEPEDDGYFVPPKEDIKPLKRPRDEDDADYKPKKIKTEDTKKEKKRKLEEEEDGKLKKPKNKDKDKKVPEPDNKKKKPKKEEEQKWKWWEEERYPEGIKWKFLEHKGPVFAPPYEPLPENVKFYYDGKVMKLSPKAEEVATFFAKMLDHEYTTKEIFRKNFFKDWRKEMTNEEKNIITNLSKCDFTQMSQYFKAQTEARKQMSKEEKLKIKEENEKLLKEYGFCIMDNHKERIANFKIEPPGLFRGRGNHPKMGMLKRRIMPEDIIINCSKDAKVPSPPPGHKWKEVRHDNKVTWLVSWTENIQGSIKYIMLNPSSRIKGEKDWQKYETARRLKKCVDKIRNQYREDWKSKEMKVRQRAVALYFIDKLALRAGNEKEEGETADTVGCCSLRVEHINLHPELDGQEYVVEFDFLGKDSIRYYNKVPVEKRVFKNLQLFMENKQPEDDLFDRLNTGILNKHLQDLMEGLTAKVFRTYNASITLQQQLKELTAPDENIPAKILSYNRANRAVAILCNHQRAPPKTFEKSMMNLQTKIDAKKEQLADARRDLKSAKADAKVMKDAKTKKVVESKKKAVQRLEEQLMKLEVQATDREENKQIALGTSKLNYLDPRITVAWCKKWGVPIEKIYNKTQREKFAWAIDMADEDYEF
ASK-γ (plant GSK-3), sequence (P43289 whole entry): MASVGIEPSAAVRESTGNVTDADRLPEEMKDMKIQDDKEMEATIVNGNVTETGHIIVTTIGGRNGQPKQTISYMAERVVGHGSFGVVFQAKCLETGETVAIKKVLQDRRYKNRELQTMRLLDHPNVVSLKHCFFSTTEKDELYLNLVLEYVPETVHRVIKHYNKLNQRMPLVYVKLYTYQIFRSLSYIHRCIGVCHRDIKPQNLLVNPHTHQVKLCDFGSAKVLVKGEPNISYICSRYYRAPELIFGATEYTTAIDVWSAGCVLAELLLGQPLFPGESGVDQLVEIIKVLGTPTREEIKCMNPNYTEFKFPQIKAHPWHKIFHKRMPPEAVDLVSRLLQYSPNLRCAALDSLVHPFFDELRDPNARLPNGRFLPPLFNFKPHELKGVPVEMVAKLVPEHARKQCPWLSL
protein kinase C β2, sequence (P05771 1-673 isoform P05771-2): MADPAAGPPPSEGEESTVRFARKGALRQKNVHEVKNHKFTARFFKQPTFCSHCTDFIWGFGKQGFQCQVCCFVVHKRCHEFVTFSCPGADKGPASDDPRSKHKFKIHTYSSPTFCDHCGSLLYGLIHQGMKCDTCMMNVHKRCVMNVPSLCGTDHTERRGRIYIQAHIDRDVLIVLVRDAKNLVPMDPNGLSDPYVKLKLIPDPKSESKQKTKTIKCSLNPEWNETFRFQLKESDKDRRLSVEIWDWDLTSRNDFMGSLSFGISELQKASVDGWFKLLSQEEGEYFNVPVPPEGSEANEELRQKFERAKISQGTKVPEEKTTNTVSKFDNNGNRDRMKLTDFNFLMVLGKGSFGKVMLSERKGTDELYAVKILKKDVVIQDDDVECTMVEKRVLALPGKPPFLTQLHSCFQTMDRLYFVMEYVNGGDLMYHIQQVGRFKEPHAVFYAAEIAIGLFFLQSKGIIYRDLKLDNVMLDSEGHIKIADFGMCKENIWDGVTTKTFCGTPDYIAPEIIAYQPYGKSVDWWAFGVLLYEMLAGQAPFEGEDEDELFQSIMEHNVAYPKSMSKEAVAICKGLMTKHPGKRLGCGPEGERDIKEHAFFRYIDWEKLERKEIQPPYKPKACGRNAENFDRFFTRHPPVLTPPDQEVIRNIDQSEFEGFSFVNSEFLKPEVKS
protein kinase C β1, sequence (P05771 whole entry): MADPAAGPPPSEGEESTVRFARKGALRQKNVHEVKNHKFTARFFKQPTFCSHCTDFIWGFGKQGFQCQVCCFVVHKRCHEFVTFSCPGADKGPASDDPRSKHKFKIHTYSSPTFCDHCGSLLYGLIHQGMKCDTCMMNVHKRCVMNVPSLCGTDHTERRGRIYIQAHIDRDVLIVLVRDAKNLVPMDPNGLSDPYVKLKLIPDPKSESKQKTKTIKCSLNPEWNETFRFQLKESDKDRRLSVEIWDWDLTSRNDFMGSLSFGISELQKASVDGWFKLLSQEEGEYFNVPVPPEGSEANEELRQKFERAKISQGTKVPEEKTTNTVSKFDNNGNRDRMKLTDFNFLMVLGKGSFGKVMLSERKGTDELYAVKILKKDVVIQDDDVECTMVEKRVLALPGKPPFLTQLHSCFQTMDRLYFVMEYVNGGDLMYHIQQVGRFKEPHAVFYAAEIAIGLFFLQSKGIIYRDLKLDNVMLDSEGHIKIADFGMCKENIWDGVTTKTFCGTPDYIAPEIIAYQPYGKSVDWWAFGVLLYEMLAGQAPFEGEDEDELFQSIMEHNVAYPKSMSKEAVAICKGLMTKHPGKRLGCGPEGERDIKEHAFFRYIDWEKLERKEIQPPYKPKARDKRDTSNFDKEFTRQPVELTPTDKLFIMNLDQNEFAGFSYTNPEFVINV

**Q.** Which “AT100 signal (tau phosphorylated at T212 and S214)” value [1] does the source give for `NC1=NC(=O)C(=C2CCNC(=O)c3[nH]c(Br)cc32)N1` [hymenialdisine, 4-(2-amino-4-oxo-2-imidazolin-5-ylidene)-2-bromo-4,5,6,7-tetrahydropyrrolo (2,3-c) azepine-8-one] here?
**A.** disappearance of AT100 signal

**Q.** And the IC50 (protein kinase C β2)?
**A.** 1.7 µM

**Q.** And the IC50 (c-Jun N-terminal kinase)?
**A.** 8.5 µM

**Q.** And the IC50 (cdk2/cyclin E)?
**A.** 0.04 µM

**Q.** And the IC50 (ovary, OVCAR-3)?
**A.** 1.8 µg/mL (≈ 5.55 µM)

**Q.** And the IC50 (protein kinase C ε)?
**A.** 6.5 µM

**Q.** What about the IC50 (kidney, A498) of the same compound?
**A.** 24.7 µg/mL (≈ 76.2 µM)

**Q.** What about the IC50 (topoisomerase I) of the same compound?
**A.** > 10 µM

**Q.** And the IC50 (protein kinase C β1)?
**A.** 1.2 µM

**Q.** What about the “displacement of cyclin B from CDK1” value (CDK1/cyclin B) of the same compound?
**A.** does not act by displacing cyclin B from CDK1

**Q.** What about the IC50 (ASK-γ (plant GSK-3)) of the same compound?
**A.** 0.08 µM
